ChEMBL document CHEMBL1146910, “Selectively guanidinylated derivatives of neamine. Syntheses and inhibition of anthrax lethal factor protease” (Bioorg Med Chem Lett, 2006)

Experiments:
Conditions in all cases: read-out: Ki app
Lethal factor = biological target: T1, Lethal factor (Bacillus anthracis, UniProt P15917)
T1 sequence (P15917 whole entry): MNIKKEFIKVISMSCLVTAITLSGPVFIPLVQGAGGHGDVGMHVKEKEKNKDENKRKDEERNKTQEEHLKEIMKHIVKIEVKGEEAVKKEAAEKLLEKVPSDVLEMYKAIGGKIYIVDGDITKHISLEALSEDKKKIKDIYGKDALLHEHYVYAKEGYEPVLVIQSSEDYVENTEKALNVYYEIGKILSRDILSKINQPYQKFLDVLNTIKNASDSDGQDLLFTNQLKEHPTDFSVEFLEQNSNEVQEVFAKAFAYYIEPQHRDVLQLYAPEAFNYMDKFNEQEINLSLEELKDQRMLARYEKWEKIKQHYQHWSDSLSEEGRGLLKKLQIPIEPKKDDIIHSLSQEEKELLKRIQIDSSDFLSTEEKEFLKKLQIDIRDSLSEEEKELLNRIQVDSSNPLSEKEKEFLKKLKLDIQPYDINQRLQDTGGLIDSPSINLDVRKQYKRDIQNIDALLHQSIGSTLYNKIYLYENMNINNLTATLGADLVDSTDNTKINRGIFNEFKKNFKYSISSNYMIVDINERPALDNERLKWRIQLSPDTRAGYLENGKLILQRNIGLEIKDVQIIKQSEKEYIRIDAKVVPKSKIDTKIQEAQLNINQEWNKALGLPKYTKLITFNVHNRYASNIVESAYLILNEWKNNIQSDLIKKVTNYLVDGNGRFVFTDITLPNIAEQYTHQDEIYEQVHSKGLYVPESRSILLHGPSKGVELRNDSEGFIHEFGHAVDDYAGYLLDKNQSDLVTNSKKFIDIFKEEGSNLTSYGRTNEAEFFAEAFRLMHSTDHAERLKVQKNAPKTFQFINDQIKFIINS

[1] = biological target: Matrix metalloproteinase-9 (Homo sapiens, UniProt P14780); test: Activity at MMP9
Matrix metalloproteinase-9, sequence (P14780 whole entry): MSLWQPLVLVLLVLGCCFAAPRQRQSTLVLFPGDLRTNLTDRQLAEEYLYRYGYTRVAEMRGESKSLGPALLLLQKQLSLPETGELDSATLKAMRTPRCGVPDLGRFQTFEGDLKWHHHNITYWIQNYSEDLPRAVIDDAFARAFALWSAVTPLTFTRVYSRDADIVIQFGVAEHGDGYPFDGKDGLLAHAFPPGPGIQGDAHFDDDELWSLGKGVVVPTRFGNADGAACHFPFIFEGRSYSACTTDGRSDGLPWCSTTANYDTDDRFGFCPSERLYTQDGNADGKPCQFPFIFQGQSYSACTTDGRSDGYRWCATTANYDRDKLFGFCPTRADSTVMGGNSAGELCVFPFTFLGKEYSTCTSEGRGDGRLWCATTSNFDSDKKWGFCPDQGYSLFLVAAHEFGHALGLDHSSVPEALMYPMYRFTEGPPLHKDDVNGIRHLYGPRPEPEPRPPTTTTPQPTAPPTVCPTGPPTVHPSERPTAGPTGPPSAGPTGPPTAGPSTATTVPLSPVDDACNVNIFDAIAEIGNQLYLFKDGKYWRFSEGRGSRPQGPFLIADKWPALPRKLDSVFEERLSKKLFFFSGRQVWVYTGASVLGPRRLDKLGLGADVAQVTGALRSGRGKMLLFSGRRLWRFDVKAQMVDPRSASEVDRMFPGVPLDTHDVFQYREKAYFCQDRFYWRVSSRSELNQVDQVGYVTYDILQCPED

[2] = biological target: Matrix metalloproteinase-14 (Homo sapiens, UniProt P50281); test: Activity at MMP14
Stromelysin-1 = Stromelysin-1 (Homo sapiens, UniProt P08254); test: Activity at MMP3
Stromelysin-1, sequence (P08254 whole entry): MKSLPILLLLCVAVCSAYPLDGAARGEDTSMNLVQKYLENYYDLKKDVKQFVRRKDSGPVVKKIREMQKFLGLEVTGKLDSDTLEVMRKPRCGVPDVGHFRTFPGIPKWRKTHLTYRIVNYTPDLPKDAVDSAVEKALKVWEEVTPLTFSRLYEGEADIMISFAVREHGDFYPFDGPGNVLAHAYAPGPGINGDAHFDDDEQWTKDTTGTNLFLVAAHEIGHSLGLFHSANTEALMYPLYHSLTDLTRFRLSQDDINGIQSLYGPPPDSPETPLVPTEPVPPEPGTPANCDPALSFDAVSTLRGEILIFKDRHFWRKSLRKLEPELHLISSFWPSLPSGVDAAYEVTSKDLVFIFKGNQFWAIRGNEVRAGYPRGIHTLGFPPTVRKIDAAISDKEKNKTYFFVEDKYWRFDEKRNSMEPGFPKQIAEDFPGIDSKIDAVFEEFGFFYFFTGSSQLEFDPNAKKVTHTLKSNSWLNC

Interstitial collagenase = biological target: T2, Interstitial collagenase (Homo sapiens, UniProt P03956); test: Activity at MMP1
T2 sequence (P03956 whole entry): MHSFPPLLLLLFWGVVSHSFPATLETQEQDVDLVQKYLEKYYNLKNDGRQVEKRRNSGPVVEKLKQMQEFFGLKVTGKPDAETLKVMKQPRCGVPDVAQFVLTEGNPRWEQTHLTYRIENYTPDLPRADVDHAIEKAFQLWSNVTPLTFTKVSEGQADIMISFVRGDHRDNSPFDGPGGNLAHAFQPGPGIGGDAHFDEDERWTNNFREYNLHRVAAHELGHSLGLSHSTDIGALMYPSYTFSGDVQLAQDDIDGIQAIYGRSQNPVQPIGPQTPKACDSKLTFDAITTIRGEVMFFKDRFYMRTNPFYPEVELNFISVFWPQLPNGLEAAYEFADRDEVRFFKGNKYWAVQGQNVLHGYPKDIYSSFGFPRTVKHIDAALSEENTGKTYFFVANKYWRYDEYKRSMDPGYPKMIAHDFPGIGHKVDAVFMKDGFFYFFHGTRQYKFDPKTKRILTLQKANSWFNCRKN

[3] = biological target: Macrophage metalloelastase (Homo sapiens, UniProt P39900); test: Activity at MMP12
Macrophage metalloelastase, sequence (P39900 whole entry): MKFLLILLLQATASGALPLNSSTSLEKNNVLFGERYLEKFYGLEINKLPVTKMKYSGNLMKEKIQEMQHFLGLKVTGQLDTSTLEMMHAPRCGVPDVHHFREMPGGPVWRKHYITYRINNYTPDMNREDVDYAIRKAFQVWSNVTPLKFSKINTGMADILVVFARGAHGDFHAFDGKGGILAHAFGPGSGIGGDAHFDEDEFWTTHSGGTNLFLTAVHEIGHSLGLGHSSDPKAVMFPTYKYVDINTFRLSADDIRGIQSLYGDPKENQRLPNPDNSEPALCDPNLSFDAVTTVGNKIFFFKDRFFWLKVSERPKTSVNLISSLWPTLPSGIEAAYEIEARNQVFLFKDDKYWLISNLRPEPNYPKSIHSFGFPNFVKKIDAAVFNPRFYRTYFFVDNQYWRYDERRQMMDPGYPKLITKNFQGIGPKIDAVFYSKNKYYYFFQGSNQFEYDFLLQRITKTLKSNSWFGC

| Compound | Ki (Lethal factor) [µM] | Ki [1] [µM] | Ki [2] [µM] | Ki (Stromelysin-1) [µM] | Ki (Interstitial collagenase) [µM] | Ki [3] [µM] |
| --- | --- | --- | --- | --- | --- | --- |
| NC(N)=NC[C@H]1O[C@H](O[C@H]2[C@H](O)[C@@H](O)[C@H](N=C(N)N)C[C@@H]2N)[C@H](N)[C@@H](O)[C@@H]1O | 10.2 | – | – | – | – | – |
| NC[C@H]1O[C@H](O[C@H]2[C@H](O)[C@@H](O)[C@H](N=C(N)N)C[C@@H]2N=C(N)N)[C@H](N)[C@@H](O)[C@@H]1O | 5.6 | – | – | – | – | – |
| NC[C@H]1O[C@H](O[C@H]2[C@H](O)[C@@H](O)[C@H](N=C(N)N)C[C@@H]2N)[C@H](N=C(N)N)[C@@H](O)[C@@H]1O | 5.3 | – | – | – | – | – |
| NC(N)=NC[C@H]1O[C@H](O[C@H]2[C@H](O)[C@@H](O)[C@H](N)C[C@@H]2N)[C@H](N=C(N)N)[C@@H](O)[C@@H]1O | 7.7 | – | – | – | – | – |
| NC[C@H]1O[C@H](O[C@H]2[C@H](O)[C@@H](O)[C@H](N)C[C@@H]2N=C(N)N)[C@H](N)[C@@H](O)[C@@H]1O | 5.2 | – | – | – | – | – |
| NC[C@H]1O[C@H](O[C@H]2[C@H](O)[C@@H](O)[C@H](N)C[C@@H]2N=C(N)N)[C@H](N=C(N)N)[C@@H](O)[C@@H]1O | 0.7 | > 300 | > 300 | > 300 | > 300 | > 300 |
| N=C(N)NC[C@H]1O[C@H](O[C@H]2[C@H](O)[C@@H](O)[C@H](NC(=N)N)C[C@@H]2NC(=N)N)[C@H](NC(=N)N)[C@@H](O)[C@@H]1O | 0.7 | > 300 | > 300 | > 300 | > 300 | > 300 |
| CO[C@@H]1[C@@H](OC)[C@H](N=C(N)N)C[C@H](N=C(N)N)[C@H]1O[C@H]1O[C@H](CN=C(N)N)[C@@H](OC)[C@H](OC)[C@H]1N=C(N)N | 1.5 | > 300 | > 300 | > 300 | > 300 | > 300 |
| NC(N)=NC[C@H]1O[C@H](O[C@H]2[C@H](O)[C@@H](O)[C@H](N)C[C@@H]2N=C(N)N)[C@H](N=C(N)N)[C@@H](O)[C@@H]1O | 9.2 | – | – | – | – | – |
| NC(N)=NC[C@H]1O[C@H](O[C@H]2[C@H](O)[C@@H](O)[C@H](N=C(N)N)C[C@@H]2N)[C@H](N=C(N)N)[C@@H](O)[C@@H]1O | 3.1 | – | – | – | – | – |
| NC(N)=NC[C@H]1O[C@H](O[C@H]2[C@H](O)[C@@H](O)[C@H](N)C[C@@H]2N)[C@H](N)[C@@H](O)[C@@H]1O | 24.3 | – | – | – | – | – |
| NC(N)=NC[C@H]1O[C@H](O[C@H]2[C@H](O)[C@@H](O)[C@H](N=C(N)N)C[C@@H]2N=C(N)N)[C@H](N)[C@@H](O)[C@@H]1O | 8.7 | – | – | – | – | – |
| NC(N)=NC[C@H]1O[C@H](O[C@H]2[C@H](O)[C@@H](O)[C@H](N)C[C@@H]2N=C(N)N)[C@H](N)[C@@H](O)[C@@H]1O | 8.8 | – | – | – | – | – |
| NC[C@H]1O[C@H](O[C@H]2[C@H](O)[C@@H](O)[C@H](N=C(N)N)C[C@@H]2N)[C@H](N)[C@@H](O)[C@@H]1O | 5 | – | – | – | – | – |
| NC[C@H]1O[C@H](O[C@H]2[C@H](O)[C@@H](O)[C@H](N)C[C@@H]2N)[C@H](N=C(N)N)[C@@H](O)[C@@H]1O | 10.9 | – | – | – | – | – |
| NC[C@H]1O[C@H](O[C@H]2[C@H](O)[C@@H](O)[C@H](N=C(N)N)C[C@@H]2N=C(N)N)[C@H](N=C(N)N)[C@@H](O)[C@@H]1O | 0.5 | > 300 | > 300 | > 300 | > 300 | > 300 |
